# Measured values reported in PubChem BioAssay AID248 (DTP/NCI, 2004).
# Toxic doses and inconclusive results are not listed.
# Test system: L1210 leukemia ip in BDF1 mice, survival T/C
# Assay: NCI In Vivo Anticancer Drug Screen. Data for tumor model L1210 Leukemia (intraperitoneal) in B6D2F1 (BDF1) mice
# Details: endpoint: mean survival time, higher = longer survival
# In short: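 Survival endpoint. Drug-treated group vs vehicle group, expressed as T divided by C. Tumor passaged by transplantation.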
# [1] = dose: 100.0 mg/kg/injection, schedule: Q01DX009 (ip), vehicle: Klucel (hydroxypropylcellulose) (HPC)
# [2] = dose: 200.0 mg/kg/injection, schedule: Q01DX009 (ip), vehicle: Klucel (hydroxypropylcellulose) (HPC)
# [3] = dose: 400.0 mg/kg/injection, schedule: Q01DX009 (ip), vehicle: Klucel (hydroxypropylcellulose) (HPC)
# [4] = dose: 50.0 mg/kg/injection, schedule: Q01DX001 (ip), vehicle: saline
# [5] = dose: 100.0 mg/kg/injection, schedule: Q01DX001 (ip), vehicle: saline
# [6] = dose: 100.0 mg/kg/injection, schedule: Q04DX003 (ip), vehicle: Klucel (hydroxypropylcellulose) (HPC)
# [7] = dose: 200.0 mg/kg/injection, schedule: Q01DX001 (ip), vehicle: saline
# [8] = dose: 200.0 mg/kg/injection, schedule: Q04DX003 (ip), vehicle: Klucel (hydroxypropylcellulose) (HPC)
# [9] = dose: 400.0 mg/kg/injection, schedule: Q01DX001 (ip), vehicle: saline
# [10] = dose: 400.0 mg/kg/injection, schedule: Q04DX003 (ip), vehicle: Klucel (hydroxypropylcellulose) (HPC)
# [11] = dose: 50.0 mg/kg/injection, schedule: Q01DX009 (ip), vehicle: saline
# [12] = dose: 100.0 mg/kg/injection, schedule: Q04DX002 (ip), vehicle: saline with Tween-80
# [13] = dose: 200.0 mg/kg/injection, schedule: Q04DX002 (ip), vehicle: saline with Tween-80
# [14] = dose: 400.0 mg/kg/injection, schedule: Q04DX002 (ip), vehicle: saline with Tween-80
smiles,measurement,setting,value
O=C(CCN1CC1)NCCCCCCCCNC(=O)CCN1CC1,T/C,"dose: 1.0 mg/kg/injection, schedule: Q01DX009 (ip), vehicle: saline",91 % of control
same,T/C,"dose: 2.0 mg/kg/injection, schedule: Q01DX009 (ip), vehicle: saline",105 % of control
same,T/C,"dose: 4.0 mg/kg/injection, schedule: Q01DX009 (ip), vehicle: carboxymethylcellulose (CMC)",111 % of control
same,T/C,"dose: 8.0 mg/kg/injection, schedule: Q01DX009 (ip), vehicle: carboxymethylcellulose (CMC)",96 % of control
same,T/C,"dose: 22.0 mg/kg/injection, schedule: Q01DX001 (ip), vehicle: carboxymethylcellulose (CMC)",111 % of control
same,T/C,"dose: 26.0 mg/kg/injection, schedule: Q01DX009 (ip), vehicle: carboxymethylcellulose (CMC)",151 % of control
same,T/C,"dose: 33.0 mg/kg/injection, schedule: Q01DX001 (ip), vehicle: carboxymethylcellulose (CMC)",122 % of control
same,T/C,"dose: 33.0 mg/kg/injection, schedule: Q01DX009 (ip), vehicle: carboxymethylcellulose (CMC)",151 % of control
same,T/C,"dose: 50.0 mg/kg/injection, schedule: Q01DX009 (ip), vehicle: carboxymethylcellulose (CMC)",160 % of control
same,T/C,"dose: 75.0 mg/kg/injection, schedule: Q01DX001 (ip), vehicle: carboxymethylcellulose (CMC)",150 % of control
Cc1cc(C(=O)O)c(C)n1-c1cccc2ccccc12,T/C,"dose: 75.0 mg/kg/injection, schedule: Q04DX003 (ip), vehicle: Klucel (hydroxypropylcellulose) (HPC)",98 % of control
same,T/C,[1],102 % of control
same,T/C,"dose: 150.0 mg/kg/injection, schedule: Q04DX003 (ip), vehicle: Klucel (hydroxypropylcellulose) (HPC)",98 % of control
same,T/C,[2],108 % of control
same,T/C,"dose: 300.0 mg/kg/injection, schedule: Q04DX003 (ip), vehicle: Klucel (hydroxypropylcellulose) (HPC)",97 % of control
same,T/C,[3],113 % of control
ClCC[N+]12CC[N+](CCCl)(CC1)C2,T/C,"dose: 75.0 mg/kg/injection, schedule: Q01DX001 (ip), vehicle: saline",105 % of control
same,T/C,"dose: 150.0 mg/kg/injection, schedule: Q01DX001 (ip), vehicle: saline",120 % of control
CS(=O)(=O)OCC1CCCO1 (stereo not drawn),T/C,[4],107 % of control
same,T/C,[5],98 % of control
same,T/C,[1],98 % of control
same,T/C,[6],108 % of control
same,T/C,[7],98 % of control
same,T/C,[2],111 % of control
same,T/C,[8],103 % of control
same,T/C,[9],101 % of control
same,T/C,[3],93 % of control
same,T/C,[10],104 % of control
CC(C)=NNC(N)=O,T/C,"dose: 12.5 mg/kg/injection, schedule: Q01DX009 (ip), vehicle: saline",97 % of control
same,T/C,"dose: 25.0 mg/kg/injection, schedule: Q01DX009 (ip), vehicle: saline",100 % of control
same,T/C,"dose: 25.0 mg/kg/injection, schedule: Q04DX002 (ip), vehicle: saline",98 % of control
same,T/C,[11],94 % of control
same,T/C,"dose: 50.0 mg/kg/injection, schedule: Q04DX002 (ip), vehicle: saline",103 % of control
CC(=O)C1=C(c2ccccc2)C(=O)C(C(C)=O)=C(c2ccccc2)C1=O,T/C,[6],100 % of control
same,T/C,[8],100 % of control
same,T/C,[10],96 % of control
CS(=O)(=O)CCN1C(=O)C2C3CCC(O3)C2C1=O (stereo not drawn),T/C,[12],112 % of control
same,T/C,[13],108 % of control
same,T/C,[14],97 % of control
O=C1C2(Cl)C3(Cl)C4(OCCO4)C4(Cl)C2(Cl)C2(Cl)C1(Cl)C3(Cl)C42Cl (stereo not drawn),T/C,[4],100 % of control
same,T/C,[5],100 % of control
same,T/C,[7],105 % of control
same,T/C,[9],96 % of control
CC(C)(C)c1ccc(S(=O)(=O)C/C=C/COc2ccccc2)cc1,T/C,"dose: 75.0 mg/kg/injection, schedule: Q01DX009 (ip), vehicle: Klucel (hydroxypropylcellulose) (HPC)",91 % of control
same,T/C,"dose: 150.0 mg/kg/injection, schedule: Q01DX009 (ip), vehicle: Klucel (hydroxypropylcellulose) (HPC)",98 % of control
NNC(=O)OCc1ccccc1,T/C,"dose: 25.0 mg/kg/injection, schedule: Q04DX002 (ip), vehicle: saline with Tween-80",100 % of control
same,T/C,"dose: 50.0 mg/kg/injection, schedule: Q04DX002 (ip), vehicle: saline with Tween-80",100 % of control
same,T/C,[12],100 % of control
Cc1nnc(NC(=O)C(Cl)(Cl)Cl)s1,T/C,"dose: 100.0 mg/kg/injection, schedule: Q01DX001 (ip), vehicle: other",94 % of control
same,T/C,"dose: 100.0 mg/kg/injection, schedule: Q04DX003 (ip), vehicle: other",96 % of control
same,T/C,"dose: 200.0 mg/kg/injection, schedule: Q01DX001 (ip), vehicle: other",105 % of control
same,T/C,"dose: 200.0 mg/kg/injection, schedule: Q04DX003 (ip), vehicle: other",109 % of control
same,T/C,"dose: 400.0 mg/kg/injection, schedule: Q01DX001 (ip), vehicle: other",104 % of control
same,T/C,"dose: 400.0 mg/kg/injection, schedule: Q04DX003 (ip), vehicle: other",96 % of control
O=C1C2=C(CCC2)c2ccccc21,T/C,[5],103 % of control
same,T/C,[7],96 % of control
O=C(Nc1cccc(C(F)(F)F)c1)c1cc(C(O)C2CCCCN2)c2cccc(C(F)(F)F)c2n1 (stereo not drawn),T/C,"dose: 100.0 mg/kg/injection, schedule: Q01DX009 (sc), vehicle: olive oil, sesame oil, peanut oil",105 % of control
same,T/C,"dose: 100.0 mg/kg/injection, schedule: Q04DX003 (sc), vehicle: olive oil, sesame oil, peanut oil",102 % of control
same,T/C,"dose: 200.0 mg/kg/injection, schedule: Q01DX009 (sc), vehicle: olive oil, sesame oil, peanut oil",97 % of control
same,T/C,"dose: 200.0 mg/kg/injection, schedule: Q04DX003 (sc), vehicle: olive oil, sesame oil, peanut oil",97 % of control
same,T/C,"dose: 400.0 mg/kg/injection, schedule: Q01DX009 (sc), vehicle: olive oil, sesame oil, peanut oil",108 % of control
same,T/C,"dose: 400.0 mg/kg/injection, schedule: Q04DX003 (sc), vehicle: olive oil, sesame oil, peanut oil",97 % of control
Cc1ccc([N+](=O)[O-])cc1NC(=O)NC(=O)c1ccccc1,T/C,"dose: 100.0 mg/kg/injection, schedule: Q04DX002 (ip), vehicle: Klucel (hydroxypropylcellulose) (HPC)",92 % of control
same,T/C,"dose: 200.0 mg/kg/injection, schedule: Q04DX002 (ip), vehicle: Klucel (hydroxypropylcellulose) (HPC)",95 % of control
same,T/C,"dose: 400.0 mg/kg/injection, schedule: Q04DX002 (ip), vehicle: Klucel (hydroxypropylcellulose) (HPC)",97 % of control
Cc1ccc(OC/C=C/CSc2ccc(C)cc2)cc1,T/C,"dose: 100.0 mg/kg/injection, schedule: Q01DX001 (ip), vehicle: Klucel (hydroxypropylcellulose) (HPC)",98 % of control
same,T/C,[6],101 % of control
same,T/C,"dose: 200.0 mg/kg/injection, schedule: Q01DX001 (ip), vehicle: Klucel (hydroxypropylcellulose) (HPC)",94 % of control
same,T/C,[8],97 % of control
same,T/C,"dose: 400.0 mg/kg/injection, schedule: Q01DX001 (ip), vehicle: Klucel (hydroxypropylcellulose) (HPC)",94 % of control
same,T/C,[10],95 % of control
ClC1=C(Cl)C2(Cl)CCC1(Cl)C2Cl (stereo not drawn),T/C,[11],103 % of control
same,T/C,"dose: 100.0 mg/kg/injection, schedule: Q01DX009 (ip), vehicle: saline",98 % of control
same,T/C,"dose: 100.0 mg/kg/injection, schedule: Q04DX003 (ip), vehicle: saline",104 % of control
same,T/C,"dose: 200.0 mg/kg/injection, schedule: Q01DX009 (ip), vehicle: saline",95 % of control
same,T/C,"dose: 200.0 mg/kg/injection, schedule: Q04DX003 (ip), vehicle: saline",103 % of control
same,T/C,"dose: 400.0 mg/kg/injection, schedule: Q04DX003 (ip), vehicle: saline",97 % of control
COC(=O)NS(=O)(=O)Nc1ccccc1,T/C,[12],97 % of control
same,T/C,[13],87 % of control
same,T/C,[14],94 % of control
COC1C(O)C(C)OC(OC2CCC3(C)C(CCC4C3C(O)CC3(C)C(C5=CC(=O)OC5)CCC43O)C2)C1O (stereo not drawn),T/C,"dose: 5.0 mg/kg/injection, schedule: Q01DX001 (ip), vehicle: saline",103 % of control
same,T/C,"dose: 10.0 mg/kg/injection, schedule: Q01DX001 (ip), vehicle: saline",103 % of control
same,T/C,"dose: 20.0 mg/kg/injection, schedule: Q01DX001 (ip), vehicle: saline",101 % of control
CCOC(=O)CC(N)=O,T/C,"dose: 100.0 mg/kg/injection, schedule: Q04DX002 (ip), vehicle: saline",111 % of control
same,T/C,"dose: 200.0 mg/kg/injection, schedule: Q04DX002 (ip), vehicle: saline",96 % of control
same,T/C,"dose: 400.0 mg/kg/injection, schedule: Q04DX002 (ip), vehicle: saline",104 % of control
N#CC1c2cc(OC(=O)c3ccccc3)ccc2C=CN1C(=O)c1ccccc1 (stereo not drawn),T/C,"dose: 100.0 mg/kg/injection, schedule: Q04DX003 (ip), vehicle: gum acacia",89 % of control
same,T/C,"dose: 200.0 mg/kg/injection, schedule: Q04DX003 (ip), vehicle: gum acacia",89 % of control
